Test results published in US5270047A, “Local delivery of dipyridamole for the treatment of proliferative diseases” (priority 1991, dated 1993).
“Also recorded” adds a separate entry of the source.

Experiments:
[1] = tested on: Smooth muscle cells from rabbit aorta; assay: Effect of serum concentration on inhibition of PDGF-induced DNA synthesis (3H thymidine incorporation) by dipyridamole; assay type: cell-based; details: for inhibition at 0.04 µg/mL / inhibition at 0.08 µg/mL / inhibition at 0.15 µg/mL / inhibition at 0.3 µg/mL / inhibition at 0.6 µg/mL / inhibition at 1.2 µg/mL / inhibition at 2.5 µg/mL: Oryctolagus cuniculus, 24 h, 40 ng/ml PDGF; for inhibition at 0.04 µg/mL: dipyridamole 0.04 μg/ml; for inhibition at 0.08 µg/mL: dipyridamole 0.08 μg/ml; for inhibition at 0.15 µg/mL: dipyridamole 0.15 μg/ml; for inhibition at 0.3 µg/mL: dipyridamole 0.3 μg/ml; for inhibition at 0.6 µg/mL: dipyridamole 0.6 μg/ml; for inhibition at 1.2 µg/mL: dipyridamole 1.2 μg/ml; for inhibition at 2.5 µg/mL: dipyridamole 2.5 μg/ml
Protocol: Serum reduces the effectiveness of systemically administered dipyridamole as an inhibitor of cell proliferation. […] Growth arrested, confluent cultures in 96 well microtiter plates were incubated in medium containing 1%, 5% or 20% serum (Hyclone Laboratories, Logan, Utah), 2 mM L-glutamine, 100 U/ml penicillin, 100 μg/ml streptomycin, 40 ng/ml PDGF (Genzyme, Cambridge, Mass.), 1 μci/ml ^3 H thymidine (DuPont, Boston, Mass.) and indicated concentrations of dipyridamole (Sigma Chemical, St. Louis, Mo.). Cells were incubated at 37° C. for 24 hours under 5% CO2 /95% air. At the end of 24 hours, cells were fixed in methanol and DNA synthesis was determined by ^3 H thymidine incorporation as described in Bonin et al., Exp. Cell Res. 181, 475-482 (1989).

[2] = tested on: balloon-injured rat carotid arteries; assay: Effect of systemic (dietary) dipyridamole upon intimal thickening after balloon injury of the left common carotid artery; assay type: in vivo, male Sprague-Dawley rats; details: two weeks; for Area of Intimal Thickening: control 0.120 ± 0.014
Protocol: Balloon injury to the left common carotid arteries of male Sprague-Dawley rats (350-400 g) was accomplished by three passes of an inflated 2F Fogarty balloon catheter (Baxter Healthcare, McGaw Park, Ill.) as described by Clowes et al., Lab Invest. 49:208-215 (1983). Animals were anesthetized with Ketamine (80 mg/kg, intramuscular, Aveco, Ft. Dodge, Iowa) and Rompun (16 mg/kg, intramuscular, Mobay Corp., Shawnee, Kans.). Entry of the balloon catheter to the left common carotid artery was made via a nick in the external carotid artery, which was tied off at the end of the surgical procedure. Dipyridamole was systemically administered for two weeks (0.03 and 0.10% wt/wt, as an admixture in the diet, equivalent to approximately 30 and 100 mg/kg/day, respectively).

[3] = tested on: balloon-injured left common carotid arteries; assay: Effect of local adventitial dipyridamole upon intimal thickening after balloon injury of the left common carotid artery; assay type: in vivo, male Sprague-Dawley rats; details: 600 μg/day, fourteen days
Protocol: Balloon injury to the left common carotid arteries of male Sprague-Dawley rats (350-400 g) was accomplished by three passes of an inflated 2F Fogarty balloon catheter as described by Clowes et al., Lab Invest. 49:208-215 (1983). Animals were anesthetized with Ketamine (80 mg/kg, intramuscular) and Rompun (16 mg/kg, intramuscular). Entry of the balloon catheter to the left common carotid artery was made via a nick in the external carotid artery, which was tied off at the end of the surgical procedure. Continuous local delivery of dipyridamole was accomplished by means of a minosmotic pump implanted subcutaneously in the back of the rat. […]
Fourteen days post surgery, animals were anesthetized (vide supra) and perfused through the abdominal aorta in a retrograde manner at physiological pressure with a zinc formalin fixative (Anatech LTD., Battle Creek, Mich.). […] Three adjacent cross sections (5 μm thick) of each vessel were cut, stained with hematoxylin and eosin, and cross-sectional intimal areas quantitated with an image analyzer (Quantimet 970, Cambridge Inst., Cambridge, UK).
The difference between intimal areas of drug-treated vs. control groups were analyzed for statistical significance using Student's t-test as described in Tallarida et al., Manual of Pharmacologic Calculations with Computer Programs, Springer-Verlag, New York, 1981, p. […]

Balb/c3T3 fibroblasts = assay: Inhibition of fibroblast growth (Coulter cell counting); assay type: cell-based
Protocol: Cells were then transferred to above medium containing indicated concentrations of dipyridamole. After three days cell growth was determined by counting using a ZM Coulter counter (Coulter Diagnostic, Inc.).

vascular restenosis = details: systemic administration; patients; cited from earlier work
[4] = 0.03% in diet wt/wt (approximately 30 mg/kg/day)
[5] = 0.10% in diet wt/wt (approximately 100 mg/kg/day)

## OCCN(CCO)c1nc(N2CCCCC2)c2nc(N(CCO)CCO)nc(N3CCCCC3)c2n1 [Dipyridamole, 2,6-bis(diethanolamino)-4,8-dipiperidinopyrimido[5,4-d]pyrimidine]
[1]; 1%, 5% or 20% serum
  effect of serum on antiproliferative activity: increasing concentrations of serum attenuate the growth inhibitory effects of dipyridamole
[1]; 1% serum
  inhibition at 0.04 µg/mL: 59%
  inhibition at 0.08 µg/mL: 70%
  inhibition at 0.15 µg/mL: 79%
  inhibition at 0.3 µg/mL: 80%
  inhibition at 0.6 µg/mL: 86%
  inhibition at 1.2 µg/mL: 90%
  inhibition at 2.5 µg/mL: 93%
[1]; 5% serum
  inhibition at 0.04 µg/mL: 52%
  inhibition at 0.08 µg/mL: 53%
  inhibition at 0.15 µg/mL: 60%
  inhibition at 0.3 µg/mL: 71%
  inhibition at 0.6 µg/mL: 80%
  inhibition at 1.2 µg/mL: 87%
  inhibition at 2.5 µg/mL: 92%
[1]; 20% serum
  inhibition at 0.04 µg/mL: 6%
  inhibition at 0.08 µg/mL: 0%
  inhibition at 0.15 µg/mL: 33%
  inhibition at 0.3 µg/mL: 38%
  inhibition at 0.6 µg/mL: 60%
  inhibition at 1.2 µg/mL: 74%
  inhibition at 2.5 µg/mL: 77%
[2]; [4]
  Area of Intimal Thickening (% of control): 97.6 % of control
  Area of Intimal Thickening: 0.116 ± 0.017 mm^2
[2]; 0.03 and 0.10% wt/wt in the diet
  effect upon intimal thickening in the balloon-injured rat carotid arteries: No significant effect upon intimal thickening
[2]; [5]
  Area of Intimal Thickening (% of control): 90.8 % of control
  Area of Intimal Thickening: 0.109 ± 0.014 mm^2
[3]; P < 0.05 vs. control
  Area of Intimal Thickening (% of control): 67.4 % of control
[3]; vehicle 0.129 ± 0.013, P < 0.05 vs. control
  Area of Intimal Thickening: 0.087 ± 0.011 mm^2
Balb/c3T3 fibroblasts; Mus musculus, BALB/c3T3, 72 h, dipyridamole 1.0 μg/ml, three days, 5% fetal bovine serum
  inhibition at 1 µg/mL: 0%
Balb/c3T3 fibroblasts; Mus musculus, BALB/c3T3, 72 h, dipyridamole 5.0 μg/ml, three days, 5% fetal bovine serum
  inhibition at 5 µg/mL: 55%
Balb/c3T3 fibroblasts; Mus musculus, BALB/c3T3, 72 h, dipyridamole 10 μg/ml, three days, 5% fetal bovine serum
  inhibition at 10 µg/mL: 72%
Balb/c3T3 fibroblasts; Mus musculus, BALB/c3T3, 72 h, dipyridamole 20 μg/ml, three days, 5% fetal bovine serum
  inhibition at 20 µg/mL: 86%
Balb/c3T3 fibroblasts; Mus musculus, BALB/c3T3, 72 h, dipyridamole 40 μg/ml, three days, 5% fetal bovine serum
  inhibition at 40 µg/mL: 95%
Balb/c3T3 fibroblasts; fibroblasts
  inhibition of proliferation of cells of mesenchyme origin: inhibits proliferation of cells of mesenchyme origin
Vascular restenosis
  effect in treating or preventing vascular restenosis: ineffective; also recorded: ineffective in treating or preventing vascular restenosis in patients
